ChEMBL document CHEMBL5257062, “Synthesis, in vitro cytotoxicity evaluation and mechanism of 5' monosubstituted chalcone derivatives as antitumor agents” (Bioorg Med Chem Lett, 2023)
Calls of active or inactive are those of the source. No cut-off for these calls is given here.

What was measured:
K562 [1] = test: Cytotoxicity against human K562 cells by MTT assay; format: functional, cell-based
HepG2 [2] = test: Cytotoxicity against human HepG2 cells by MTT assay; format: functional, cell-based
HT-29 = test: Cytotoxicity against human HT-29 cells by MTT assay; format: functional, cell-based
MDA-MB-231 = test: Cytotoxicity against human MDA-MB-231 cells; format: functional, cell-based
[3] = Cytotoxicity against HUVEC cells; format: toxicity, cell-based; conditions: human
[4] = Cytotoxicity against HEK293T cells; format: toxicity, cell-based, HEK-293T; conditions: human
HepG2 [5] = test: Inhibition of cell migration human HepG2 cells assessed as migration distance at 0.3 uM incubated for 48 hrs by wound healing assay (reference value: 0 micrometer); format: functional
HepG2 [6] = test: Inhibition of cell migration human HepG2 cells assessed as migration distance at 0.3 uM incubated for 24 hrs by wound healing assay (reference value: 424.41 micrometer); format: functional
HepG2 [7] = test: Inhibition of cell migration human HepG2 cells assessed as migration distance at 1 uM incubated for 12 hrs by wound healing assay (reference value: 566.76 micrometer); format: functional
HepG2 [8] = test: Inhibition of cell migration human HepG2 cells assessed as migration distance at 1 uM incubated for 24 hrs by wound healing assay (reference value: 424.41 micrometer); format: functional
HepG2 [9] = test: Inhibition of cell migration human HepG2 cells assessed as migration distance at 1 uM incubated for 48 hrs by wound healing assay (reference value: 0 micrometer); format: functional
K562 [10] = test: Induction of cell cycle arrest in human K562 cells assessed as accumulation of cells at G1 phase at 20 uM incubated for 12 hrs by flow cytometry (reference value: 71.17%); format: functional
K562 [11] = test: Induction of apoptosis in human K562 cells at 20 uM after 48 hrs by annexin V-FITC and PI staining based method (reference value: 9.8%); format: functional
K562 [12] = test: Induction of cell cycle arrest in human K562 cells assessed as accumulation of cells at S phase at 2 uM incubated for 24 hrs by flow cytometry (reference value: 17.51%); format: functional
HepG2 [13] = test: Inhibition of cell migration human HepG2 cells assessed as migration distance at 0.3 uM incubated for 12 hrs by wound healing assay (reference value: 566.76 micrometer); format: functional
K562 [14] = test: Induction of cell cycle arrest in human K562 cells assessed as accumulation of cells at G2 phase at 20 uM incubated for 12 hrs by flow cytometry (reference value: 11.93%); format: functional
HepG2 [15] = test: Inhibition of cell migration human HepG2 cells assessed as migration distance at 3 uM incubated for 24 hrs by wound healing assay (reference value: 424.41 micrometer); format: functional
HepG2 [16] = test: Inhibition of cell migration human HepG2 cells assessed as migration distance at 3 uM incubated for 48 hrs by wound healing assay (reference value: 0 micrometer); format: functional
K562 [17] = test: Induction of apoptosis in human K562 cells assessed as inhibition of cell growth at 2 to 20 uM; format: functional, cell-based; conditions: dose 2-20 µM, time 12-72 hrs, TDE = time-dependent effect
HepG2 [18] = test: Inhibition of cell migration human HepG2 cells assessed as migration distance at 3 uM incubated for 36 hrs by wound healing assay (reference value: 243.56 micrometer); format: functional
K562 [19] = test: Induction of apoptosis in human K562 cells at 20 uM after 24 hrs by annexin V-FITC and PI staining based method (reference value: 9%); format: functional
K562 [20] = test: Induction of cell cycle arrest in human K562 cells assessed as accumulation of cells at G1 phase at 2 uM incubated for 12 hrs by flow cytometry (reference value: 71.17%); format: functional
K562 [21] = test: Induction of apoptosis in human K562 cells at 20 uM after 12 hrs by annexin V-FITC and PI staining based method (reference value: 8.4%); format: functional
K562 [22] = test: Induction of cell cycle arrest in human K562 cells assessed as accumulation of cells at G2 phase at 20 uM incubated for 24 hrs by flow cytometry (reference value: 0.27%); format: functional
HepG2 [23] = test: Inhibition of cell migration human HepG2 cells assessed as migration distance at 3 uM incubated for 12 hrs by wound healing assay (reference value: 566.76 micrometer); format: functional
K562 [24] = test: Induction of apoptosis in human K562 cells at 2 uM after 24 hrs by annexin V-FITC and PI staining based method (reference value: 9%); format: functional
K562 [25] = test: Induction of cell cycle arrest in human K562 cells assessed as accumulation of cells at G1 phase at 2 uM incubated for 24 hrs by flow cytometry (reference value: 82.22%); format: functional
K562 [26] = test: Induction of cell cycle arrest in human K562 cells assessed as accumulation of cells at G1 phase at 20 uM incubated for 6 hrs by flow cytometry (reference value: 57.73%); format: functional
K562 [27] = test: Induction of cell cycle arrest in human K562 cells assessed as accumulation of cells at G1 phase at 20 uM incubated for 24 hrs by flow cytometry (reference value: 82.22%); format: functional
K562 [28] = test: Induction of cell cycle arrest in human K562 cells assessed as accumulation of cells at G1 phase at 2 uM incubated for 6 hrs by flow cytometry (reference value: 57.73%); format: functional
HepG2 [29] = test: Inhibition of cell migration human HepG2 cells at 0.3 to 3 uM incubated for 48 hrs by Transwell assay; format: functional, cell-based; conditions: dose 0.3-3 µM
K562 [30] = test: Induction of cell cycle arrest in human K562 cells assessed as accumulation of cells at S phase at 2 uM incubated for 12 hrs by flow cytometry (reference value: 16.9%); format: functional
K562 [31] = test: Induction of apoptosis in human K562 cells assessed as inhibition of cell growth after 12 to 72 hrs; format: functional, cell-based; conditions: dose 0.2-20 µM, time 12-72 hrs
K562 [32] = test: Induction of cell cycle arrest in human K562 cells assessed as accumulation of cells at S phase at 20 uM incubated for 6 hrs by flow cytometry (reference value: 28.87%); format: functional
K562 [33] = test: Induction of apoptosis in human K562 cells assessed as appearance of apoptotic bodies at 2 to 20 uM by light microscopic analysis; format: functional, cell-based; conditions: dose 2-20 µM, TDE = time-dependent effect
HepG2 [34] = test: Inhibition of cell migration human HepG2 cells assessed as migration distance at 0.3 uM incubated for 36 hrs by wound healing assay (reference value: 243.56 micrometer); format: functional
K562 [35] = test: Induction of cell cycle arrest in human K562 cells assessed as accumulation of cells at S phase at 20 uM incubated for 24 hrs by flow cytometry (reference value: 17.51%); format: functional
HepG2 [36] = test: Inhibition of cell migration human HepG2 cells assessed as migration distance at 1 uM incubated for 36 hrs by wound healing assay (reference value: 243.56 micrometer); format: functional
K562 [37] = test: Induction of cell cycle arrest in human K562 cells assessed as accumulation of cells at G2 phase at 2 uM incubated for 12 hrs by flow cytometry (reference value: 11.93%); format: functional
K562 [38] = test: Induction of cell cycle arrest in human K562 cells assessed as accumulation of cells at S phase at 2 uM incubated for 6 hrs by flow cytometry (reference value: 28.87%); format: functional
K562 [39] = test: Induction of cell cycle arrest in human K562 cells assessed as accumulation of cells at S phase at 20 uM incubated for 12 hrs by flow cytometry (reference value: 16.9%); format: functional
K562 [40] = test: Induction of cell cycle arrest in human K562 cells assessed as accumulation of cells at G2 phase at 20 uM incubated for 6 hrs by flow cytometry (reference value: 13.40%); format: functional
K562 [41] = test: Induction of cell cycle arrest in human K562 cells assessed as accumulation of cells at G2 phase at 2 uM incubated for 6 hrs by flow cytometry (reference value: 13.40%); format: functional
K562 [42] = test: Induction of apoptosis in human K562 cells at 2 uM after 12 hrs by annexin V-FITC and PI staining based method (reference value: 8.4%); format: functional
K562 [43] = test: Induction of apoptosis in human K562 cells at 2 uM after 48 hrs by annexin V-FITC and PI staining based method (reference value: 9.8%); format: functional
K562 [44] = test: Induction of cell cycle arrest in human K562 cells assessed as accumulation of cells at G2 phase at 2 uM incubated for 24 hrs by flow cytometry (reference value: 0.27%); format: functional
HCT-116 = test: Cytotoxicity against human HCT-116 cells; format: functional, cell-based

## COc1cc(OC)c(-c2ccccc2)cc1C(=O)/C=C/c1ccccc1
K562 [1]
  IC50: 3.83 µM
HepG2 [2]
  IC50: > 10 µM
HT-29
  IC50: 9.17 µM

## COc1cc(OC)c(-c2ccc(C(F)(F)F)cc2)cc1C(=O)/C=C/c1ccccc1
K562 [1]
  IC50: 8.7 µM
HepG2 [2]
  IC50: > 10 µM
HT-29
  IC50: > 10 µM

## COc1cc(OC)c(-c2ccc(C#N)cc2)cc1C(=O)/C=C/c1ccccc1
K562 [1]
  IC50: > 10 µM
HepG2 [2]
  IC50: > 10 µM
HT-29
  IC50: > 10 µM

## COc1cc(OC)c(-c2ccc(-c3ccco3)cc2)cc1C(=O)/C=C/c1ccccc1
K562 [1]
  IC50: 4.69 µM
HepG2 [2]
  IC50: 5.91 µM
HT-29
  IC50: 6.17 µM

## CC[C@@]1(O)C(=O)OCc2c1cc1n(c2=O)Cc2cc3ccccc3nc2-1 [CAMPTOTHECIN]
K562 [1]
  IC50: 0.04 µM
HepG2 [2]
  IC50: 0.02 µM
MDA-MB-231
  IC50: > 100 µM
[3]
  IC50: 0.06 µM
HT-29
  IC50: 0.07 µM
[4]
  IC50: 0.03 µM

## COc1ccc(-c2cc(C(=O)/C=C/c3ccccc3)c(OC)cc2OC)cc1
K562 [1]
  IC50: 7.26 µM
HepG2 [2]
  IC50: > 10 µM
HT-29
  IC50: > 10 µM

## COc1cc(OC)c(-c2ccc(F)cc2)cc1C(=O)/C=C/c1ccccc1
HepG2 [5]
  Activity: 245.7 um
HepG2 [6]
  Activity: 438 um
HepG2 [7]
  Activity: 551.11 um
HepG2 [8]
  Activity: 486.95 um
HepG2 [9]
  Activity: 301.44 um
K562 [10]
  Activity: 52.57%
K562 [1]
  IC50: 1.97 µM
K562 [11]
  Activity: 62.6%
K562 [12]
  Activity: 37.74%
HepG2 [13]
  Activity: 532.4 um
K562 [14]
  Activity: 10.88%
HepG2 [15]
  Activity: 488.94 um
HepG2 [16]
  Activity: 337.11 um
HepG2 [2]
  IC50: 2.23 µM
MDA-MB-231
  IC50: 10.7 µM
[3]
  IC50: 19.7 µM
K562 [17]
  Activity: Tde
HepG2 [18]
  Activity: 423.28 um
HT-29
  IC50: 7.69 µM
K562 [19]
  Activity: 19.8%
K562 [20]
  Activity: 58.31%
K562 [21]
  Activity: 11.9%
K562 [22]
  Activity: 1.33%
HepG2 [23]
  Activity: 534.71 um
K562 [24]
  Activity: 12%
K562 [25]
  Activity: 54.29%
K562 [26]
  Activity: 60.44%
K562 [27]
  Activity: 54.29%
K562 [28]
  Activity: 58.77%
HepG2 [29]
  inhibition: Active
K562 [30]
  Activity: 29.39%
K562 [31]
  Activity: Dose-Dependent Effect
[4]
  IC50: 5.19 µM
K562 [32]
  Activity: 30.33%
K562 [33]
  Activity: Tde
HepG2 [34]
  Activity: 294.54 um
K562 [35]
  Activity: 44.38%
HepG2 [36]
  Activity: 401.52 um
K562 [37]
  Activity: 12.29%
K562 [38]
  Activity: 29.62%
K562 [39]
  Activity: 36.55%
K562 [40]
  Activity: 9.25%
K562 [41]
  Activity: 11.61%
K562 [42]
  Activity: 8.1%
K562 [43]
  Activity: 32%
K562 [44]
  Activity: 7.97%
HCT-116
  IC50: 5.17 µM

## COc1cc(OC)c(-c2ccc(C)cc2)cc1C(=O)/C=C/c1ccccc1
K562 [1]
  IC50: 2.59 µM
HepG2 [2]
  IC50: > 10 µM
HT-29
  IC50: 9.29 µM

## COc1cc(OC)c(-c2ccc(OC(C)=O)cc2)cc1C(=O)/C=C/c1ccccc1
K562 [1]
  IC50: > 10 µM
HepG2 [2]
  IC50: > 10 µM
HT-29
  IC50: > 10 µM
